Values quoted from earlier work as cited in patent US20230302026A1, “IMMUNOMODULATION FORMULATIONS AND RELATED METHODS” (priority 2020, published 2023).
≈ marks a conversion by molar mass, not a printed value. Where two headings read alike, the source gives them in different places.

What was measured:
CB2 [1] = target: T1, CB2 (Homo sapiens, UniProt P34972)
inflammation = settings: animal model
CB1 [2] = target: T2, CB1 (Homo sapiens, UniProt P21554); settings: read-out: Ki, affinity for the human recombinant CB1 receptor
Target sequence in this assay (P21554 whole entry): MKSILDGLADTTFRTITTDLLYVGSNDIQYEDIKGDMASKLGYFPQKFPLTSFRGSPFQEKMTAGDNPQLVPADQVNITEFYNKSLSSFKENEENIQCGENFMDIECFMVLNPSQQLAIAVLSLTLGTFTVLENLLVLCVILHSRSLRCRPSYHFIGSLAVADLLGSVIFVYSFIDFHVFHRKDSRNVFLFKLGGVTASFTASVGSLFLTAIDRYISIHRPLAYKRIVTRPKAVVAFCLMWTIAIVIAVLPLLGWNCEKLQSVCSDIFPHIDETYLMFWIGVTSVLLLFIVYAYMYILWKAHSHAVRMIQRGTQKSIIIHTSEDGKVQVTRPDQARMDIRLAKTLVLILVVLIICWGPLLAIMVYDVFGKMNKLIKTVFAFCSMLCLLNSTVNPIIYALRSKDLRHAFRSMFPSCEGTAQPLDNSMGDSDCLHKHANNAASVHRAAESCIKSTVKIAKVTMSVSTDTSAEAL

5-HT1a = target: T3, 5-HT1a (Homo sapiens, UniProt P08908)
T3 sequence (P08908 1-422): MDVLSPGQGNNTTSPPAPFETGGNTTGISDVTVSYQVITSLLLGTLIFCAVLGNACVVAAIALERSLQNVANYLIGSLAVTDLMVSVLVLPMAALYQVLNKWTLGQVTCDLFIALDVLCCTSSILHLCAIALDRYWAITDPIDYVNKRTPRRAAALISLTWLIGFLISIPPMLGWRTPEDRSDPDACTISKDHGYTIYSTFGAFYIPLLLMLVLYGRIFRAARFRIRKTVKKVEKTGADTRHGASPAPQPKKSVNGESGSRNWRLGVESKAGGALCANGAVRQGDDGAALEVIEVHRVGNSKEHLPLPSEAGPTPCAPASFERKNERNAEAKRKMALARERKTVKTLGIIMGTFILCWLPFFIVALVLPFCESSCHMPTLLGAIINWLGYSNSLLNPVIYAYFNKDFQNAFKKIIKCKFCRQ

CB2 [3] = target: T1, CB2; remark: listed apart in the source
GPR55 = GPR55 (Homo sapiens, UniProt Q9Y2T6)
FAAH [4] = target: T4, FAAH (Homo sapiens, UniProt O00519)
T4 sequence (O00519 1-579): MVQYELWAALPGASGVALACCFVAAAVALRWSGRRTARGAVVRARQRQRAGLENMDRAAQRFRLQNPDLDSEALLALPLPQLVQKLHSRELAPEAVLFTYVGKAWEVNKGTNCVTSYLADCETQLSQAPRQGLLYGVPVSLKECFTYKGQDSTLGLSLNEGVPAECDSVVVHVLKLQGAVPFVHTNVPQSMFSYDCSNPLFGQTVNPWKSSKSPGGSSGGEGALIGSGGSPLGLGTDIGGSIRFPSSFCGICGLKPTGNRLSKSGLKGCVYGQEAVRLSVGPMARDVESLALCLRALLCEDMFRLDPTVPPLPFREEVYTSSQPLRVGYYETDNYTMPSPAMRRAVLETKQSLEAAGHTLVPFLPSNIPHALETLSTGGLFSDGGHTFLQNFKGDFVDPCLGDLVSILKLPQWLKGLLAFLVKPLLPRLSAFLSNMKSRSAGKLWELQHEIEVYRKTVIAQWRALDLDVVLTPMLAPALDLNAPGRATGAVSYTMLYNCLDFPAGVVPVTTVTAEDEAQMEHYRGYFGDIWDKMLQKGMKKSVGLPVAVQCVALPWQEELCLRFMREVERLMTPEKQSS

TRPV1 = TRPV1 (Homo sapiens, UniProt Q8NER1)
CB1 [5] = target: T2, CB1
Target sequence in this assay (P21554 whole entry, species assumed): as the sequence (P21554 whole entry) above

Adenosine A2A = Adenosine A2A (Homo sapiens, UniProt P29274)
monoamine oxidase = settings: in vitro; read-out: IC50 as monoamine oxidase inhibitor (MAOI)
MAGL = target: T5, MAGL (Homo sapiens, UniProt Q99685); settings: read-out: IC50 as MAGL inhibitor
T5 sequence (Q99685 1-303): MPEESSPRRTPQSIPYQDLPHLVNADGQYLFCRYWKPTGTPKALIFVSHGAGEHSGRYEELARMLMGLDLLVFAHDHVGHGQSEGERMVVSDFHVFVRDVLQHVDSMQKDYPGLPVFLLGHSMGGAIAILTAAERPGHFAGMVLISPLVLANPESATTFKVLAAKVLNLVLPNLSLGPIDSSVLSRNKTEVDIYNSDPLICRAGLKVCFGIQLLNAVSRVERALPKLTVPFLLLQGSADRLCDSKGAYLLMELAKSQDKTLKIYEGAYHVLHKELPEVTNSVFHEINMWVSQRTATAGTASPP

FAAH [6] = settings: read-out: IC50 as FAAH inhibitor
[7] = at 18° C.

T1 sequence (P34972 whole entry): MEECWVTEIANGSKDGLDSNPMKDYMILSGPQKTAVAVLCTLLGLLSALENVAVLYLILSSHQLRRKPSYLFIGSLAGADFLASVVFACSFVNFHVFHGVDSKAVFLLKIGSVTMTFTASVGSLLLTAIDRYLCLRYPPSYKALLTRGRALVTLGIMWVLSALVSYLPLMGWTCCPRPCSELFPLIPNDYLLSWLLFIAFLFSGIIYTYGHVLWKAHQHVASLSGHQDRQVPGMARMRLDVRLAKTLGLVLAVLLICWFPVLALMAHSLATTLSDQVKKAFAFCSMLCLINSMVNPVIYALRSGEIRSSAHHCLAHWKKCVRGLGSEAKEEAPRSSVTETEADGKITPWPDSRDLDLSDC
Adenosine A2A, sequence (P29274 whole entry): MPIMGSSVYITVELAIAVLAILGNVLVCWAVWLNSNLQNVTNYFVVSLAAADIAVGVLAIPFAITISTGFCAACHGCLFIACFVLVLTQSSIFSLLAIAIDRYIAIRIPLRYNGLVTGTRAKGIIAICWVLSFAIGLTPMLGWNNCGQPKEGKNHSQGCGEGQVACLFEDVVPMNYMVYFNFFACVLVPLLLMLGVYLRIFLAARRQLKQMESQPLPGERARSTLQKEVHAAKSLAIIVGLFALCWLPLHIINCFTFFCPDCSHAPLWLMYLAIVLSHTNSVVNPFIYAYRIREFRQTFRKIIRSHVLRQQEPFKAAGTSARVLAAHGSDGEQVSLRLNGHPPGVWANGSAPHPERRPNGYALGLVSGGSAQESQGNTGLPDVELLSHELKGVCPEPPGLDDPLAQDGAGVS
GPR55, sequence (Q9Y2T6 whole entry, species assumed): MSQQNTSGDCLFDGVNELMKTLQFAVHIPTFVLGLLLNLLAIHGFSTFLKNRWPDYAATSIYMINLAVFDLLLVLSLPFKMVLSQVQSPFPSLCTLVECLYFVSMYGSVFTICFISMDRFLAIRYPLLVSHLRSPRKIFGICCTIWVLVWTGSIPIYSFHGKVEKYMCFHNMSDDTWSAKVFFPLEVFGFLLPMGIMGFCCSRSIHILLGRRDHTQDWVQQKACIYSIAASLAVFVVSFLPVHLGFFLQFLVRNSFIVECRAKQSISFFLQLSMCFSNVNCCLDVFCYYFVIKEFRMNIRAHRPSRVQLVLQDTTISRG
TRPV1, sequence (Q8NER1 whole entry, species assumed): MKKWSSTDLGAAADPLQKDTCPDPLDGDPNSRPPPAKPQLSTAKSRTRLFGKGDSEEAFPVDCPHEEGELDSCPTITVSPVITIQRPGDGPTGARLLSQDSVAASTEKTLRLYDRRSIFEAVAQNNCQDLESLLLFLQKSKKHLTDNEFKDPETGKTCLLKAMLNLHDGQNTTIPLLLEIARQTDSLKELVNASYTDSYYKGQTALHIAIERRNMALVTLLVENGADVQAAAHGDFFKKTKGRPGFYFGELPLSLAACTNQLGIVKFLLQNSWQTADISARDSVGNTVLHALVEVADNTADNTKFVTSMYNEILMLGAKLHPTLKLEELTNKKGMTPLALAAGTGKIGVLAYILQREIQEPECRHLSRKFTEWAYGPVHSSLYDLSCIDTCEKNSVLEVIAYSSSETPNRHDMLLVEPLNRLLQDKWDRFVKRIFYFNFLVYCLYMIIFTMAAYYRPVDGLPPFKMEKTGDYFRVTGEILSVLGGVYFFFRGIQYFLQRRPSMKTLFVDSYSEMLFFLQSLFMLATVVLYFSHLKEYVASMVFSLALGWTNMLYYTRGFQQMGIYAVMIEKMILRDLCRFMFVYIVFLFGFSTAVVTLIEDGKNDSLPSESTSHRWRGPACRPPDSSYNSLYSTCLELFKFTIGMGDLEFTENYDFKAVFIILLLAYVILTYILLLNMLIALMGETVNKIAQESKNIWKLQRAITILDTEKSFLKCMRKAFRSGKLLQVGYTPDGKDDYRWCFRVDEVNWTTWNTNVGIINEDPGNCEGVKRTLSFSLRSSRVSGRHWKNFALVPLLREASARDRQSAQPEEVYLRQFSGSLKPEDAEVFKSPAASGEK

c1ccc2c(Cc3c[nH]c4ccccc34)c[nH]c2c1 [3,3′-Diindolylmethane]
Ki (CB2 [1]): ~1000 nM

C=C1CC/C=C(\C)CC[C@@H]2[C@@H]1CC2(C)C [(E)-BCP, beta-carophyllene]
Ki (CB2 [1]): 155 ± 4 nM

C/C1=C\CC/C(C)=C/CC(C)(C)/C=C/C1 [Humulene]
anti-inflammatory activity (inflammation): equal to dexamethasone

CCCCCc1cc(O)c2c(c1)OC(C)(C)[C@@H]1CCC(C)=C[C@@H]21 [THC, Δ^9-tetrahydrocannabinol]
activity at CB2 (CB2 [1]): partial agonist

COc1ccc(/C=C/c2cc(OC)cc(=O)o2)cc1 [Yangonin, yangonin]
Ki (CB1 [2]): 720 nM
Ki (CB2 [1]): > 10000 nM

C=C(C)[C@@H]1CCC(C)=C[C@H]1c1c(O)cc(CCCCC)cc1O [cannabidiol]
Activity at 5-HT1a (5-HT1a): Agonist
activity at CB2 (CB2 [3]): Agonist
Activity at GPR55 (GPR55): Antagonist
Activity at FAAH (FAAH [4]): Inhibition
Activity at TRPV1 (TRPV1): Agonist
Activity at CB1 (CB1 [5]): Agonist
Activity at Adenosine A2A (Adenosine A2A): Agonist

CC(C)CNC(=O)/C=C/C=C/CCCCCC/C=C/c1ccc2c(c1)OCO2 [guineesine]
IC50 (monoamine oxidase): 139000 nM

O=c1c(O)c(-c2ccc(O)cc2)oc2cc(O)cc(O)c12 [kaempherol]
IC50 (MAGL): < 100 nM
IC50 (FAAH [6]): < 1000 nM

O=C(/C=C/C=C/c1ccc2c(c1)OCO2)N1CCCCC1 [piperine]
solubility in water [7]: 40 µg/mL (≈ 140 µM)

C=CC(C)(C)c1cc2cc3c(cc2oc1=O)OC(C(C)(C)OC(C)=O)C3 (stereo not drawn) [rutamarin]
Ki (CB2 [1]): < 10000 nM
